1 molecule from patent US7408025B2, “Lipopeptides as antibacterial agents” (priority 1999, dated 2008) can be followed below.

The data set can be described thus: Acute toxicity monitoring in non-inoculated mice. Type of data set: in vivo, female CD-1 mice. Conditions: not inoculated; 10 mg/kg, s.c. × 2; acute toxicity group. The protocol: The test compound was dissolved in 10.0 ml of 50 mM phosphate buffer to give a solution of 1 mg/ml (pH=7.0). This solution was serially diluted with vehicle by 4-fold ([…]) to give 0.25, 0.063 and 0.016 mg/ml solutions. All the solutions were filtered with […] Nalgene syringe filter. Immediately after the bacterial inoculation, group 1 animals were subcutaneously (sc) injected with buffer (no test compound) and groups 2 to 5 were given test compound sc at 10.0, 2.5, 0.63, and 0.16 mg/kg, respectively. Group 6 animals received test compound sc at 10 mg/kg (or the highest therapeutic dose of a given compound) only for monitoring acute toxicity. These injections were repeated once at 4 hours after the inoculation for the respective groups. The injection volume at each time was 10 ml per kilogram of body weight. The results of the in vivo efficacy test are summarized in Table II, which provides a representative example of the results obtained for Compound 70. The 50% effective dose (ED50) is calculated on the basis of the number of mice surviving 7 days after inoculation. The ED50 was determined for other compounds of this invention in a similar manner.

`CCCCCCCCCC(=O)NC(Cc1c[nH]c2ccccc12)C(=O)NC(CC(N)=O)C(=O)NC(CC(=O)O)C(=O)NC1C(=O)NCC(=O)NC(CCCNC(=O)C2Cc3c([nH]c4ccccc34)CN2)C(=O)NC(CC(=O)O)C(=O)NC(C)C(=O)NC(CC(=O)O)C(=O)NCC(=O)NC(CO)C(=O)NC(C(C)CC(=O)O)C(=O)NC(CC(=O)c2ccccc2N)C(=O)OC1C` (stereo not shown) [Compound 70]: the “Survival (7 days)” value is 5/5.
